This is an account of results in paper PMC6990966, “Treatment of Porphyromonas gulae infection and downstream pathology in the aged dog by lysine‐gingipain inhibitor COR388” (Pharmacology Research & Perspectives, 2020).

Series [1] is described as follows: Plasma pharmacokinetics after single intravenous dose. Format: in vivo, Beagle dogs. As to conditions: both sexes, Beagle, dog, single intravenous dose 1 mg kg^−1 in PBS, mean ± SD.
Series [2] is described as follows: Plasma pharmacokinetics after oral administration in gelatin capsules. The following applies: Beagle, dog; for bioavailability: po, 0.5 mg/kg. Format: in vivo, Beagle dogs. The procedure: Aged Beagle dogs of both sexes ranging from 8 to 15 years of age, in generally good health and located in the Vivocore Inc dog colony, were utilized in this study. All procedures were reviewed and approved by Vivocore's Institutional Animal Care and Use Committee (IACUC) and were performed in accordance with the principles of the Animal for Research Act of Ontario and the guidelines of Canadian Council on Animal Care (CCAC). […] The detailed chemical synthesis and structure of compounds in the relevant series of lysine-gingipain inhibitors including COR388 can be found in PCT/2016/0061197. Detailed characterization of COR388 enzyme target binding, potency, and selectivity are previously described.1 Test article administered, COR388 HCl, was a solid powdered material. Dogs were dosed with neat compound hand-filled in gelatin capsules (size 1, Torpac) orally at the listed doses (free-base, corrected for salt form). All dogs utilized in studies were positive on previous BANA enzyme (BANAMet LLC, Ann Arbor, MI) testing of oral plaque samples (assay described below). In the first study, four dogs were dosed 10 mg kg^-1 q.d. with endpoints assessed after dosing and compared to those taken pre-dose in individual dogs. The second dose-response study was conducted with a randomized, blinded, matched-group design with 12 dogs. […] Groups were balanced for age, sex, weight, and baseline BANA test results to the extent possible. Dogs were group housed according to dosing group in compliance with the recommendations of the CACC. Dogs were fed a standard commercial dry diet daily in the evenings with water provided ad libitum but not within 30 minutes of the start of anesthetic procedures. For evaluation of pharmacokinetics parameters, approximately 2 mL of blood was collected at the indicated time points following test article administration into K2EDTA tubes and plasma was isolated for bioanalytical determination of plasma concentrations of COR388. A single intravenous dose of COR388 was administered in PBS at a dose of 1 mg kg^-1. Quantitation of COR388 in plasma samples following protein precipitation with mianserin added as an internal standard, was performed from the time points shown using a qualified LC-MS/MS method (AB Sciex 4000 QTrap). Plasma concentration versus time profiles were analyzed to determine pharmacokinetic parameters using noncompartmental methods (Phoenix® WinNonlin® 6.3, Pharsight Certara).

The next series deals with P. gulae. The series is described as follows: qPCR detection of P. gulae load in oral samples of naturally infected aged dogs. Format: in vivo, Beagle dogs. The procedure:
(§1) Aged Beagle dogs of both sexes ranging from 8 to 15 years of age, in generally good health and located in the Vivocore Inc dog colony, were utilized in this study. All procedures were reviewed and approved by Vivocore's Institutional Animal Care and Use Committee (IACUC) and were performed in accordance with the principles of the Animal for Research Act of Ontario and the guidelines of Canadian Council on Animal Care (CCAC). Structure‐based design was used to develop a library of gingipain inhibitors, which were tested on purified Kgp and RgpB to assess potency and determine inhibition constants. […] In the first study, four dogs were dosed 10 mg kg^−1 q.d. with endpoints assessed after dosing and compared to those taken pre‐dose in individual dogs. […]
Biofluids were evaluated for P. gulae load using a qPCR assay that was developed to specifically detect P. gulae 16S gene with the following primers and probe: Forward primer […], Reverse primer […], and probe […]. […] Saliva was evaluated with either 2 μL neat saliva or purified DNA from 2 μL saliva. Buccal cells were evaluated with either 2 μL neat buccal cell slurry or purified DNA from 2 μL buccal cell slurry. SGP was evaluated with 2 μL from the elution in B‐Per. GCF was evaluated with either purified DNA from 50 μL of B‐Per eluted GCF or neat 2 μL elution.
For orientation: Quantitative PCR measures a nucleic acid by following its amplification.

Another series deals with Kgp. The series is described as follows: Kgp activity in GCF of dosed dogs using COR553 activity-based probe. Format: in vivo, Beagle dogs. The procedure: (§2) Aged Beagle dogs of both sexes ranging from 8 to 15 years of age, in generally good health and located in the Vivocore Inc dog colony, were utilized in this study. All procedures were reviewed and approved by Vivocore's Institutional Animal Care and Use Committee (IACUC) and were performed in accordance with the principles of the Animal for Research Act of Ontario and the guidelines of Canadian Council on Animal Care (CCAC). Structure‐based design was used to develop a library of gingipain inhibitors, which were tested on purified Kgp and RgpB to assess potency and determine inhibition constants. The detailed chemical synthesis and structure of compounds in the relevant series of lysine‐gingipain inhibitors including COR388 can be found in PCT/2016/0061197. Detailed characterization of COR388 enzyme target binding, potency, and selectivity are previously described.1 Test article administered, COR388 HCl, was a solid powdered material. Dogs were dosed with neat compound hand‐filled in gelatin capsules (size 1, Torpac) orally at the listed doses (free‐base, corrected for salt form). All dogs utilized in studies were positive on previous BANA enzyme (BANAMet LLC, Ann Arbor, MI) testing of oral plaque samples (assay described below). In the first study, four dogs were dosed 10 mg kg^−1 q.d. with endpoints assessed after dosing and compared to those taken pre‐dose in individual dogs. The second dose‐response study was conducted with a randomized, blinded, matched‐group design with 12 dogs. Following baseline sample collections prior to dosing, animals were allocated to four dosing groups, n = 3 dogs per group as follows: vehicle (empty capsule), 0.15, 0.5, and 1.5 mg kg^−1 b.i.d (Q12h). Dosing continued for 28 days (0.15 and 1.5 mg kg^−1) or 90 days (vehicle and 0.5 mg kg^−1). Groups were balanced for age, sex, weight, and baseline BANA test results to the extent possible. Dogs were group housed according to dosing group in compliance with the recommendations of the CACC. Dogs were fed a standard commercial dry diet daily in the evenings with water provided ad libitum but not within 30 minutes of the start of anesthetic procedures.
Gingival Crevicular Fluid: GCF was collected from the gingival pockets at times following dosing ±30 minutes, as indicated. Eight sampling sites were identified per dog and four sites were used per timepoint. Sampling sites were isolated with a cotton roll and air‐dried. Gingival fluid collection strips (Periopaper™, Oraflow) were gently held with tweezers and placed into the pocket until resistance was felt. Strips were held in place for 30 seconds and then processed as described above for SGP isolation. […]

The test system of a further series is RgpB. Description: Rgp enzyme activity assay in SGP of dosed dogs. Format: in vivo, Beagle dogs. The following applies: oral 10 mg kg^−1 q.d. for 28 days. The procedure: as §1, with “constants. The detailed chemical synthesis and structure of compounds in the relevant series of lysine‐gingipain inhibitors including COR388 can be found in PCT/2016/0061197.” for “constants.”
For the detection of arginine‐gingipain (Rgp) activity, cysteine‐HCl was freshly added to RgpB buffer (100 mmol L^−1 Tris, 200 mmol L^−1 gly‐gly, 5 mmol L^−1 CaCl2) to a final concentration of 10 mmol L^−1 to produce a RgpB working enzyme assay buffer. […] After 50 μL of substrate solution was added, the plate was immediately read at 405 nm for 1 hour with interval of every 1.5 minutes read at 37°C and continuous shaking in Biotek Synergy 2 microplate reader. […]

The test system of series [3] is periodontal disease (pocket depth). The series is described as follows: Dental assessment of gingival pocket depth. The following applies: oral 0.5 mg kg^−1 b.i.d., day 90 vs baseline. Format: in vivo, Beagle dogs. The procedure: as §2, with “The second dose‐response study was conducted with a randomized, blinded, matched‐group design with 12 dogs. Following baseline sample collections prior to dosing, animals were allocated to four dosing groups, n = 3 dogs per group as follows: vehicle (empty capsule), 0.15, 0.5, and 1.5 mg kg^−1 b.i.d (Q12h). Dosing continued for 28 days (0.15 and 1.5 mg kg^−1) or 90 days (vehicle and 0.5 mg kg^−1). Groups were balanced for age, sex, weight, and baseline BANA test results to the extent possible. Dogs were group housed according to dosing group in compliance with the recommendations of the CACC. Dogs were fed a standard commercial dry diet daily in the evenings with water provided ad libitum but not within 30 minutes of the start of anesthetic procedures.” left out

On the set-up of series [4]: method as in PMID 30746447. The following applies: mice; cited from earlier work.
Another series relates to P. gingivalis cultures. The following applies: P. gingivalis cultures in vitro; cited from earlier work.

Read-outs that look alike come from different tables or passages of the source.

As usually defined, the clearance is a measure of how efficiently the substance is removed, as volume per time. As a reminder, the Cmax is the maximum level reached in the sampled fluid or tissue. A word on the Tmax: it is the time at which the peak concentration occurs. With `NCCCC[C@H](NC(=O)C1CCCC1)C(=O)COc1c(F)ccc(F)c1F` [COR388], the half-life in series [1] (read-out: elimination half-life (converted)) is 3.5 ± 0.6 h; in series [2] (both sexes, 0.5 mg kg^-1 oral, single oral dose (Figure 2C), mean ± SD, read-out: Apparent t1/2 (converted)) it was 2.42 ± 0.236 h. The clearance in series [1] (read-out: systemic clearance (CLS) (converted)) is 35 mL/min/kg. Also, the Vd in series [1] (read-out: volume distribution (Vss)) stood at 5.2 ± 1.3 L/kg. Further, the Cmax in series [2] (oral 0.15 mg kg^−1 b.i.d. group, single dog with minimal Kgp inhibition, read-out: plasma Cmax of the one dog with lowest exposure) was 2.73 ng/mL; in series [2] (both sexes, oral 0.15 mg kg^−1 b.i.d. group, read-out: mean Cmax in dose group) it was 9.74 ng/mL; in series [2] (both sexes, oral 0.5 mg kg^−1 administered b.i.d. for 6 days, read-out: Cmax), 66.6 ng/mL. In addition, in series [2] (both sexes, 0.5 mg kg^-1 oral, single oral dose (Figure 2C), mean ± SD), the Tmax amounted to 2.17 ± 1.76 h. Moreover, the concentration at 12 h in series [2] (both sexes, 12 hours after oral dosing of 0.5 mg kg^−1, read-out: mean trough plasma concentration (Cmin)) stood at 2.67 ng/mL. Further, the AUC(0-t) in series [2] (both sexes, oral 0.5 mg kg^−1 administered b.i.d. for 6 days, read-out: AUC0-12 h) came to 265 ng·h/mL. Also, the bioavailability in series [2] (both sexes, 0.5 mg kg^-1 oral, single oral dose (Figure 2C), mean ± SD, read-out: F) amounted to 105 ± 28.8%; in series [2] (both sexes, oral doses of 0.5 mg kg^−1 and higher, read-out: bioavailability (%F)) it was 100%. Further, the “mean decrease in baseline P. gulae DNA” value with P. gulae (buccal cells, oral 10 mg kg^−1 once a day, after 14 days of dosing) is on record as above 80%. Further, the “P. gulae bacterial load over time compared to vehicle control” value with P. gulae (oral 0.5 mg kg^−1 b.i.d. for 90 days, buccal cells (Figure 5A)) is “statistically significant reduction”. Besides, the “inhibition of baseline Kgp activity” value in the series with Kgp (oral 0.5 mg kg^−1, after a single dose) was “roughly 50%”; in the series on Kgp (oral 0.5 mg kg^−1 b.i.d., after 28 days of dosing), “near complete inhibition”. Moreover, the “Kgp activity compared to vehicle control” value in the series with Kgp (oral 0.5 mg kg^−1 b.i.d. for 90 days) is given as “statistically significant reduction”. Besides, in the series with Kgp (oral 10 mg kg^−1 q.d., 2 hours after dosing on days 14 and 28), the “active Kgp available for COR553 probe binding” value is “no active sites were available for probe binding”. The “active RgpB in SGP versus baseline day 1” value in the series on RgpB is given as “reduction”. Further, in series [3] (P = .0156), the “mean average pocket depth, all individual pockets” value is “reduction”. Besides, in series [3] (P = .0332), the “mean average pocket depth, pockets ≥3 mm at baseline or end of study, per dog” value is “significant reduction”. Moreover, in series [4], the brain penetration entry is on record as “brain penetrant”. Besides, in the series on P. gingivalis cultures, the “drug resistance on chronic administration” value is “did not lead to drug resistance”.
